How the values were obtained:
SARS-CoV-2-nLuc = assay: microbe, parasite or virus in culture; type: cell-based; conditions: Severe acute respiratory syndrome coronavirus 2; VeroE6-TMPRSS2 cells; read-out: Antiviral potency (EC50 [µM]) SARS-CoV-2
VSV-nLuc = assay: microbe, parasite or virus in culture; type: cell-based; conditions: Vesicular stomatitis virus, Vero C1008, read-out: Antiviral potency (EC50 [µM]) VSV
RSV A2-L19F = assay: microbe, parasite or virus in culture; type: cell-based; conditions: human respiratory syncytial virus; Hep-2 cells; read-out: Antiviral potency (EC50 [µM]) RSV
in vitro [1] = conditions: African green monkey
HPIV3-nLuc = assay: microbe, parasite or virus in culture; type: cell-based; conditions: Human respirovirus 3, Vero C1008; VeroE6 cells; read-out: Antiviral potency (EC50 [µM]) HPIV3
in vitro [2] = conditions: human
SINV-GLuc = assay: microbe, parasite or virus in culture; type: cell-based; conditions: Sindbis virus, Vero C1008; VeroE6 cells; read-out: Antiviral potency (EC50 [µM]) SINV
[3] = system: CHIKV-nLuc (181/25 strain); assay: microbe, parasite or virus in culture; type: cell-based, Chikungunya virus; conditions: Chikungunya virus, 384-well format, read 20 h after infection, read-out: Normalized percent inhibition in primary screen
VEEV-TC83-nLuc = assay: microbe, parasite or virus in culture; type: cell-based; conditions: Venezuelan equine encephalitis virus, Vero C1008, read-out: Antiviral potency (EC50 [µM]) VEEV
CHIKV replicon = assay: microbe, parasite or virus in culture; conditions: Chikungunya virus, U2OS, read-out: Antiviral potency (EC50 [µM]) CHKV replicon
in vitro [4] = conditions: human; remark: listed apart in the source

SMILES	EC50 (SARS-CoV-2-nLuc) [µM]	EC50 (VSV-nLuc) [µM]	EC50 (RSV A2-L19F) [µM]	CC50 (in vitro [1]) [µM]	EC50 (HPIV3-nLuc) [µM]	CC50 (in vitro [2]) [µM]	EC50 (SINV-GLuc) [µM]	inhibition at 5 µM [3] [%]	EC50 (VEEV-TC83-nLuc) [µM]	EC50 (CHIKV replicon) [µM]	selectivity ratio (in vitro [4])
CC(C)(C)c1ccc(C(=O)On2c(-c3ccccc3F)nc3ccccc3c2=O)cc1 [GAP-1000864]	> 20	> 20	> 10	> 20	> 20	> 20	> 20	91	–	–	–
CCN1CCc2nc3sc(C(=O)c4ccccc4)c(C)c3cc2C1 [GAP-1022776]	> 20	> 20	> 10	25.2	> 20	19.2	> 20	85.7	–	–	–
O=C(CSc1c2c(nc3cc(Cl)ccc13)CCCC2)Nc1ccc2c(c1)OCCO2 [GAP-1022901]	> 20	> 20	> 10	> 20	> 20	> 20	> 20	82.1	–	–	–
Cc1ccc(NC(=O)c2oc3ccccc3c2NC(=O)c2nc(S(C)(=O)=O)ncc2Cl)cc1 [GAP-1027276]	> 20	> 20	> 10	> 20	> 20	20	> 20	98.2	–	–	–
CCS(=O)(=O)c1ncc(Cl)c(C(=O)Nc2nnc(C(C)C)s2)n1 [GAP-1027282]	> 20	> 20	> 10	> 20	> 20	16.7	> 20	97.2	–	–	–
Cc1ccc2sc(N(CCCN(C)C)C(=O)c3nc4ccccc4s3)nc2c1C [GAP-1041908]	28	32.7	–	34.9	41	31.4	18.9	94.7	18.8	32.1	< 10
